Assays:
Assay in all cases: combination Emax (second highest fraction inhibited in the dose matrix, 72 h); higher = more inhibition; extreme values may be limits of the assay
PEO1 (Ovarian Carcinoma) = system: PEO1 (Ovarian Carcinoma)
Summary of the method: (§1)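 Bliss excess equals the observed combination effect minus the expected value EA + EB − EA·EB, where EA and EB are the effects of each agent alone. Combination Emax is the second-highest inhibition within the matrix. Inhibition was scaled from CellTiter-Glo 2.0 luminescence, with 0 set by vehicle wells and 1 by blank wells, after 72 hours of two-drug dosing of cells plated in 1536-well plates.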

[1] = system: NCI-H1651 (Lung Adenocarcinoma)
Summary of the method: as §1

[2] = system: KYSE-140 (Esophageal Squamous Cell Carcinoma)
Summary of the method: as §1

[3] = system: NCI-H716 (Colorectal Carcinoma)
Summary of the method: as §1

[4] = system: LU-165 (Small Cell Lung Carcinoma)
Summary of the method: as §1

[5] = system: CAL-27 (Oral Cavity Carcinoma)
Summary of the method: as §1

AU565 (Breast Carcinoma) = system: AU565 (Breast Carcinoma)
Summary of the method: as §1

[6] = system: LS-411N (Colorectal Carcinoma)
Summary of the method: as §1

[7] = system: 22RV1 (Prostate Carcinoma)
Summary of the method: as §1

[8] = system: JHH-2 (Hepatocellular Carcinoma)
Summary of the method: as §1

EW-7 (Ewing's Sarcoma) = system: EW-7 (Ewing's Sarcoma)
Summary of the method: as §1

[9] = system: JIMT-1 (Breast Carcinoma)
Summary of the method: as §1

[10] = system: NCI-H1703 (Squamous Cell Lung Carcinoma)
Summary of the method: as §1

[11] = system: huH-1 (Hepatocellular Carcinoma)
Summary of the method: as §1

[12] = system: UACC-812 (Breast Carcinoma)
Summary of the method: as §1

[13] = system: CA46 (Burkitt's Lymphoma)
Summary of the method: as §1

[14] = system: GCT (Other Solid Carcinomas)
Summary of the method: as §1

[15] = system: A2780 (Ovarian Carcinoma)
Summary of the method: as §1

[16] = system: MDA-MB-436 (Breast Carcinoma)
Summary of the method: as §1

[17] = system: OACp4C (Esophageal Adenocarcinoma)
Summary of the method: as §1

SMILES | combination Emax (PEO1 (Ovarian Carcinoma)) | combination Emax [1] | combination Emax [2] | combination Emax [3] | combination Emax [4] | combination Emax [5] | combination Emax (AU565 (Breast Carcinoma)) | combination Emax [6] | combination Emax [7] | combination Emax [8] | combination Emax (EW-7 (Ewing's Sarcoma)) | combination Emax [9] | combination Emax [10] | combination Emax [11] | combination Emax [12] | combination Emax [13] | combination Emax [14] | combination Emax [15] | combination Emax [16] | combination Emax [17]
CCc1c2c(nc3ccc(O)cc13)-c1cc3c(c(=O)n1C2)COC(=O)[C@]3(O)CC [SN-38] + CN(C)CCCOc1ccc(-c2ccc3ncc4c(c3c2)n(C2CCOCC2)c(=O)n4C)cn1 [AZD0156] (first compound max 0.3 µM, 7x7, partner max 1 µM) | 0.674 | 0.852 | 0.305 | 0.202 | 0.517 | 0.905 | 0.8 | 0.363 | 0.683 | 0.7 | 0.975 | 0.266 | 0.875 | 0.762 | 0.608 | 0.758 | 0.683 | 0.726 | 0.572 | 0.714
Cn1cnc2c(F)c(Nc3ccc(Br)cc3Cl)c(C(=O)NOCCO)cc21 [Selumetinib] + C=CCn1c(=O)c2cnc(Nc3ccc(N4CCN(C)CC4)cc3)nc2n1-c1cccc(C(C)(C)O)n1 [AZD1775] (first compound max 10 µM, partner max 1 µM) | 0.335 | 0.574 | 0.683 | 0.428 | 0.261 | 0.578 | 0.644 | 0.794 | 0.406 | 0.536 | 0.806 | 0.6 | 0.944 | 0.48 | 0.138 | 0.635 | 0.384 | 0.799 | 0.311 | 0.909
Cn1cnc2c(F)c(Nc3ccc(Br)cc3Cl)c(C(=O)NOCCO)cc21 [Selumetinib] + CC(C)n1c(=O)n(C)c2cnc3cc(F)c(-c4ccc(OCCCN5CCCCC5)nc4)cc3c21 [AZD1390] (first compound max 10 µM, 7x7, partner max 0.3 µM) | 0.266 | 0.125 | 0.191 | 0.452 | 0.213 | 0.611 | 0.146 | 0.666 | 0.307 | 0.315 | 0.15 | 0.131 | 0.122 | 0.107 | 0.129 | 0.306 | 0.287 | 0.574 | 0.259 | 0.43
Cn1cnc2c(F)c(Nc3ccc(Br)cc3Cl)c(C(=O)NOCCO)cc21 [Selumetinib] + CCN(CCO)CCCOc1ccc2c(Nc3cc(CC(=O)Nc4cccc(F)c4)[nH]n3)ncnc2c1 [AZD2811] (first compound max 10 µM, 7x7, partner max 1 µM) | 0.29 | 0.209 | 0.294 | 0.428 | 0.158 | 0.611 | 0.2 | 0.786 | 0.383 | 0.325 | 0.509 | 0.153 | 0.472 | 0.307 | 0.166 | 0.312 | 0.384 | 0.702 | 0.264 | 0.838
Cn1cnc2c(F)c(Nc3ccc(Br)cc3Cl)c(C(=O)NOCCO)cc21 [Selumetinib] + C[C@@H]1COCCN1C2=NC(=NC(=C2)C3(CC3)[S@](=N)(=O)C)C4=C5C=CNC5=NC=C4 [AZD6738] (first compound max 10 µM, 7x7, partner max 10 µM) | 0.441 | 0.377 | 0.786 | 0.577 | 0.304 | 0.63 | 0.315 | 0.808 | 0.526 | 0.641 | 0.951 | 0.491 | 0.881 | 0.537 | 0.319 | 0.579 | 0.373 | 0.829 | 0.243 | 0.856
CC(=O)Nc1cccc(-n2c(=O)n(C3CC3)c(=O)c3c(Nc4ccc(I)cc4F)n(C)c(=O)c(C)c32)c1 [Trametinib] + Cc1nc(-c2cn3c(n2)-c2ccc(-c4cnn(C(C)(C)C(N)=O)c4)cc2OCC3)n(C(C)C)n1 [Taselisib] (first compound max 1 µM, 7x7, partner max 10 µM) | 0.825 | 0.285 | 0.817 | 0.977 | 0.373 | 0.946 | 0.604 | 0.946 | 0.704 | 1 | 1 | 0.631 | 0.759 | 0.688 | 0.461 | 0.434 | 0.764 | 0.972 | 0.527 | 1
CC1(C)CCC(CN2CCN(c3ccc(C(=O)NS(=O)(=O)c4ccc(NCC5CCOCC5)c([N+](=O)[O-])c4)c(Oc4cnc5[nH]ccc5c4)c3)CC2)=C(c2ccc(Cl)cc2)C1 [Venetoclax] + C1CN(CCC1(C(=O)N[C@@H](CCO)C2=CC=C(C=C2)Cl)N)C3=NC=NC4=C3C=CN4 [Capivasertib] (first compound max 1 µM, 7x7, partner max 3 µM) | 0.19 | 0.159 | 0.669 | 0.287 | 0.269 | 0.261 | 0.46 | 0.305 | 0.484 | 0.625 | 0.962 | 0.188 | 0.384 | 0.2 | 0.238 | 0.112 | 0.426 | 0.61 | 0.163 | 0.634
CC1(C)CCC(CN2CCN(c3ccc(C(=O)NS(=O)(=O)c4ccc(NCC5CCOCC5)c([N+](=O)[O-])c4)c(Oc4cnc5[nH]ccc5c4)c3)CC2)=C(c2ccc(Cl)cc2)C1 [Venetoclax] + C=CCn1c(=O)c2cnc(Nc3ccc(N4CCN(C)CC4)cc3)nc2n1-c1cccc(C(C)(C)O)n1 [AZD1775] (first compound max 1 µM, partner max 1 µM) | 0.337 | 0.589 | 0.814 | 0.377 | 0.364 | 0.328 | 0.672 | 0.55 | 0.513 | 0.882 | 0.974 | 0.573 | 0.977 | 0.501 | 0.0382 | 0.738 | 0.431 | 0.927 | 0.231 | 0.897
CC1(C)CCC(CN2CCN(c3ccc(C(=O)NS(=O)(=O)c4ccc(NCC5CCOCC5)c([N+](=O)[O-])c4)c(Oc4cnc5[nH]ccc5c4)c3)CC2)=C(c2ccc(Cl)cc2)C1 [Venetoclax] + CCN(CCO)CCCOc1ccc2c(Nc3cc(CC(=O)Nc4cccc(F)c4)[nH]n3)ncnc2c1 [AZD2811] (first compound max 1 µM, 7x7, partner max 1 µM) | 0.252 | 0.233 | 0.367 | 0.198 | 0.161 | 0.43 | 0.181 | 0.0756 | 0.232 | 0.27 | 0.887 | 0.284 | 0.523 | 0.191 | 0.186 | 0.0318 | 0.273 | 0.472 | 0.127 | 0.665
CC1(C)CCC(CN2CCN(c3ccc(C(=O)NS(=O)(=O)c4ccc(NCC5CCOCC5)c([N+](=O)[O-])c4)c(Oc4cnc5[nH]ccc5c4)c3)CC2)=C(c2ccc(Cl)cc2)C1 [Venetoclax] + CN(C)CCCOc1ccc(-c2ccc3ncc4c(c3c2)n(C2CCOCC2)c(=O)n4C)cn1 [AZD0156] (first compound max 1 µM, 7x7, partner max 1 µM) | 0.134 | 0.194 | 0.289 | 0.0954 | 0.164 | 0.173 | 0.234 | 0.118 | 0.423 | 0.334 | 0.944 | 0.167 | 0.407 | 0.171 | 0.146 | 0 | 0.289 | 0.491 | 0.168 | 0.224
CC1(C)CCC(CN2CCN(c3ccc(C(=O)NS(=O)(=O)c4ccc(NCC5CCOCC5)c([N+](=O)[O-])c4)c(Oc4cnc5[nH]ccc5c4)c3)CC2)=C(c2ccc(Cl)cc2)C1 [Venetoclax] + COc1cc(Nc2ncc3c(n2)-c2ccc(Cl)cc2C(c2c(F)cccc2OC)=NC3)ccc1C(=O)O [Alisertib] (first compound max 1 µM, 7x7, partner max 10 µM) | 0.276 | 0.269 | 0.423 | 0.82 | 0.241 | 0.689 | 0.504 | 0.0718 | 0.329 | 0.525 | 0.932 | 0.268 | 0.554 | 0.257 | 0.224 | 0.436 | 0.463 | 0.709 | 0.246 | 0.72
CC1(C)CCC(CN2CCN(c3ccc(C(=O)NS(=O)(=O)c4ccc(NCC5CCOCC5)c([N+](=O)[O-])c4)c(Oc4cnc5[nH]ccc5c4)c3)CC2)=C(c2ccc(Cl)cc2)C1 [Venetoclax] + C[C@@H]1COCCN1C2=NC(=NC(=C2)C3(CC3)[S@](=N)(=O)C)C4=C5C=CNC5=NC=C4 [AZD6738] (first compound max 1 µM, 7x7, partner max 10 µM) | 0.48 | 0.652 | 0.863 | 0.436 | 0.441 | 0.425 | 0.382 | 0.736 | 0.599 | 0.697 | 0.959 | 0.722 | 0.883 | 0.597 | 0.29 | 0.506 | 0.334 | 0.797 | 0.36 | 0.711

Source: the supplement of paper PMC11061612
